The conditions of series [1]: at STP; cited from earlier work.
In a further series the test system is Legionella. As to conditions: cited from earlier work.
For another series, the system named is Biofilm. Particulars: shock dose 50-80 mg/mL over 8 hours, acidic conditions, outlets flushed approx. 1 hour; cited from earlier work.
The test system of series [2] is Pseudomonas aeruginosa biofilms. Kind of series: Minimal Biofilm Eradication Concentration (MBEC) assay, Calgary biofilm device. Format: cell-based. As to conditions: 22-25° C.

On to chlorine dioxide [CD], for which the “solubility in water relative to chlorine” value in series [1] is recorded as “approximately 10 times”. Also, the “time needed to achieve significant reduction in Legionella positivity” value in the series on Legionella was over 12 months. The “bacteria recovered from showerheads after treatment” value with Biofilm was over 3000 cfu/ml. The Log10 reduction in series [2] (CD 3.12 ppm, pH 6.5, 30 min) is recorded as 0.82 CFU/mm^2; in series [2] (CD 3.12 ppm, pH 7.5, 30 min) it was 1.63 CFU/mm^2; in series [2] (CD 6.25 ppm, pH 6.5, 30 min), 2.56 CFU/mm^2; in series [2] (CD 6.25 ppm, pH 7.5, 30 min), 2.38 CFU/mm^2; in series [2] (CD 12.5 ppm, pH 6.5, 30 min) it was 2.34 CFU/mm^2; in series [2] (CD 12.5 ppm, pH 7.5, 30 min) it was 2.49 CFU/mm^2. Further, the Log10 reduction result in series [2] (CD 50.0 ppm, pH 6.5, 30 min) was “Total inhibition”; in series [2] (CD 50.0 ppm, pH 7.5, 30 min), “total inhibition”.

Take `OCl` [Bleach, sodium hypochlorite]: the Log10 reduction in series [2] (Bleach 3.15 ppm, pH 6.5, 30 min) is given as 0.16 CFU/mm^2; in series [2] (Bleach 3.15 ppm, pH 7.5, 30 min) it was 0.96 CFU/mm^2; in series [2] (Bleach 6.31 ppm, pH 6.5, 30 min), “Total inhibition”; in series [2] (Bleach 6.31 ppm, pH 7.5, 30 min) it was 1.91 CFU/mm^2; in series [2] (Bleach 12.6 ppm, pH 6.5, 30 min) it was “Total inhibition”; in series [2] (Bleach 12.6 ppm, pH 7.5, 30 min), 3.03 CFU/mm^2. For the same compound, the Log10 reduction entry in series [2] (Bleach 50.5 ppm, pH 6.5, 30 min) is “Total inhibition”; in series [2] (Bleach 50.5 ppm, pH 7.5, 30 min) it was “Total inhibition”.

Source of the values: patent publication US20240034649A1, “METHODS FOR ERADICATING BIOFILMS FROM PLUMBING SYSTEMS” (GORDON & ROSENBLATT, LLC, priority 2014, published 2024).
